Data reported in patent US12083109B2, “Neurokinin antagonists and uses thereof” (California Institute of Technology, priority 2017, dated 2024).
“Also recorded” adds a separate entry of the source. Read-outs that look alike come from different tables or passages of the source.

What was measured:
NK3R = biological target: T1, NK3R (Homo sapiens, UniProt P29371); settings: cited from earlier work; for safety and tolerability in clinical trials: human, Phase I
T1 construct: host or cells: human trial subjects
T1 sequence (P29371 1-465): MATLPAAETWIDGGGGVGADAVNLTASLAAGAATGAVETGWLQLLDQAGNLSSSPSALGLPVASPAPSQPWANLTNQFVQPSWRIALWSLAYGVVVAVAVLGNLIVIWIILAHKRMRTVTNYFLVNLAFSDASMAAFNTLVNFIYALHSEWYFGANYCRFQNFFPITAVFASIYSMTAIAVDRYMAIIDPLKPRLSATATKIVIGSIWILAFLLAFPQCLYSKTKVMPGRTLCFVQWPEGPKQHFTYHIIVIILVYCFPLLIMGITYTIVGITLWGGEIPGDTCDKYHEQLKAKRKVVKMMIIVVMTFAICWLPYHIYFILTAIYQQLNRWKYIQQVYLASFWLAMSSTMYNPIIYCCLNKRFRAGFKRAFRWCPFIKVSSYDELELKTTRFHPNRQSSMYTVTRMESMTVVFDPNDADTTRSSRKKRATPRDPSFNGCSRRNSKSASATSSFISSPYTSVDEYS

[1] = biological target: T2, hM4DREADD in Tac2+ neurons (Homo sapiens, UniProt P08173, A203G/Y113C); experiment: Looming disk assay, CNO silencing of Tac2+ neurons (hM4DREADD); type: in vivo, mouse; settings: SIS Tac2-Cre mice, CNO 5 mg/kg i.p.
T2 construct: host or cells: Tac2+ neurons of Tac2-Cre mice (dBNSTa, DMH or CeA), transduced in vivo with AAV2-EF1a-DIO-hM4D-mCherry
T2 sequence (P08173 1-479 Y113C/A203G): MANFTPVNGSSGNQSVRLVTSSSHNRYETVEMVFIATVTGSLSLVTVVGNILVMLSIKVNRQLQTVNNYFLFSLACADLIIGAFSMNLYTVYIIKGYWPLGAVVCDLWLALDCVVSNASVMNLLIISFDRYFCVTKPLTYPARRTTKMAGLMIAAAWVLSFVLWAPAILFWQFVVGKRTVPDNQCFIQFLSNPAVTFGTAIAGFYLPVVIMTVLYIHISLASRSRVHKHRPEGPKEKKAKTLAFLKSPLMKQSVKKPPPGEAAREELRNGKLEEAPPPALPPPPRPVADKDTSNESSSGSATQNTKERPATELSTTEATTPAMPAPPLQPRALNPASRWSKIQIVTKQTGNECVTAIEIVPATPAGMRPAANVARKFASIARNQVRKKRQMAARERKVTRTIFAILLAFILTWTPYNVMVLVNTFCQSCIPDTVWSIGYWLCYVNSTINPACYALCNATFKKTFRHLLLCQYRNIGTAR
Description: Freezing behavior to presentation of an overhead looming disk proceeded as previously described (Kunwar et al., 2015; Yilmaz and Meister, 2013; incorporated by reference in their entirety). Briefly, mice were transported to a novel behavioral testing room. After 5 minutes of acclimation, mice were placed inside a novel, custom-built open top Plexiglas arena (48×48×30 cm) covered with a flat screen monitor placed directly above and with illumination provided by infrared LEDs (Marubeni). Mice were given a 5 minute baseline period in the arena, after which entry into the center of the arena triggered presentation of a single, 10 second overhead looming disk stimulus (comprised of a single looming disk presentation 0.5 seconds in duration, which was repeated 10 times with an inter-stimulus interval of 0.5 seconds). The stimulus was controlled by custom MATLAB code (M. Meister, Caltech) run on a dedicated computer in an adjacent room. Mice remained in the area for an additional 2 minutes before being transported back. Behavior was recorded using a video recorder attached to a laptop equipped with video capture software (Corel VideoStudio Pro). Acute freezing behavior to the looming disk (“during”) as well as in the 30 seconds following the last disk (“post”) were scored manually (Behavior Annotator, MATLAB) by an observer blind to environmental conditions. […]

What does the source list for `CC(=O)N(C)C1(c2ccccc2)CCN(CCC[C@]2(c3ccc(Cl)c(Cl)c3)CCCN(C(=O)c3ccccc3)C2)CC1` [osanetant, N-(1-{3-[(3R)-1-benzoyl-3-(3,4-dichlorophenyl)piperidin-3-yl]propyl}-4-phenylpiperidin-4-yl)-N-methylacetamide]?
efficacy in schizophrenia, bipolar and panic disorder (NK3R; human clinical trials): lack of efficacy; efficacy in schizophrenia and major depressive disorder (NK3R; human trials, Phase II/III): lack of efficacy; safety and tolerability in clinical trials (NK3R): safe and well-tolerated; safety and tolerability in clinical trials (NK3R; listed as Osanetant): well tolerated; also recorded: exhibited safety

Which results are given for `C[N+]1([O-])CCN(C2=Nc3cc(Cl)ccc3Nc3ccccc32)CC1` [CNO, clozapine-N-oxide]?
acute (during) freezing to looming disk ([1]; hM4DREADD in CeA): blocked; also recorded: suppressed; persistent (post) freezing to looming disk ([1]; hM4DREADD in dBNSTa): blocked; also recorded: selectively attenuated
